According to patent EP3056202A1, “BENZOPYRROLIDONE DERIVATIVES POSSESSING ANTIVIRAL AND ANTICANCER PROPERTIES” (Max-Planck-Gesellschaft zur Förderung der Wissenschaften …, priority 2015, dated 2016):
In brackets after ≈: the same amount, converted by molar mass.

Key:
[1] = tested on: HCT-116 human colon carcinoma cell line; assay: In vitro growth inhibition of colon carcinoma cells, HCT-116 (CellTiter-Glo); type: cell-based; conditions: 72 hours incubation, read-out: HCT116 EC50
[2] = tested on: A549 human lung carcinoma cells; assay: Cell-based EC50 determination, A549 cells (CellTiter-Glo cell viability); conditions: A549, 24 h, read-out: A549 EC50 24h
Description: A549 human lung carcinoma cells were cultured in RPMI 1640 medium (Sigma) supplemented with 10% fetal bovine serum (Sigma) and Antibiotic-Antimycotic (Sigma) in tissue culture flasks at 37°C in a humidified 5% CO2 atmosphere. Cells were routinely assayed for mycoplasma contamination.
Two thousand cells were plated in 384-well tissue culture plates, and treated after 24 hours with a 10-point dilution series of the compounds (1.5 nM-30 uM), using the vehicle, DMSO as control. Cells were incubated for 24 hours after which the relative cell density was determined by CellTiter-Glo Luminescent Cell Viability Assay (Promega). This method determines the number of metabolically active cells in the culture based on quantitation of the ATP present. The luminescent signal was measured with an Analyst GT multimode reader (Molecular Devices). […]

human Clk1 kinase = target: T1, human Clk1 kinase (Homo sapiens, UniProt P49759); assay: In vitro Clk1 assay (IMAP fluorescence polarization); type: biochemical; conditions: 0.45 µM ATP
T1 construct: Each reaction consisted of 4 nM enzyme: Clk1 kinase domain
Description: The activity of the compounds described in the present invention can be determined by the following kinase assay, which measures the phosphorylation of a fluorescently-labeled peptide by human Clk1 kinase by fluorescent polarization using a commercially available IMAP Screening Express Assay Kit (Molecular Devices).
Clk1 kinase assays were performed in low protein binding 384-well plates (Corning). Test compounds were diluted in 100% DMSO to 5 mM stock concentration and then further dilutions were made in H2O or 100% DMSO to desirable concentrations.
Each reaction consisted of 4 nM enzyme: Clk1 kinase domain, 400 nM TAMRA-AFRREWSPGKEAKK-NH2 (Genecust), 0.45 µM ATP (Sigma) and kinase buffer: 20 mM TRIS pH 8, 1 mM DTT, 0.4 mM MgCl2, 0.4 mM MnCl2, 0.01 V/V% Tween20 (all reagents from Sigma-Aldrich)
(§1) For each reaction, 4 or 6 µl containing TAMRA-peptide, ATP and kinase buffer were combined with 2 µl diluted compound in H2O or 0.02 µl compound in 100% DMSO. The kinase reaction was started by the addition of 2 µl diluted enzyme. The reaction was allowed to run for 1 hour at room temperature. The reaction was stopped by adding 15 µl IMAP beads (1:600 beads in progressive (80 % buffer A, 20% buffer B) 1x buffer). After an additional hour, fluorescent polarization (Ex: 550-10 nm, Em: 590-10 nm, Dich: 561 nm) was measured using an Analyst GT (Molecular Devices).

physchem = type: physicochemical; conditions: kinetic from dmso stock
Description: Samples were diluted in DMSO (control), phosphate buffer pH = 7.4 and pH = 2.0, from 5mM stock solutions (solved in DMSO), with a 120 µM final concentration. The samples were incubated for 24 hours at room temperature followed by 30 minutes centrifugation at 3700 rpm. 40 µl of the supernatants were injected into HPLC (Waters 2795 Alliance HPLC equipped with Waters 996 PDA Detector (HPLC column: Waters XBridge, RP C18, 3.5 µm, 4.6 mm x 50 mm; gradient MeCN/H2O, containing 0.1% HCOOH: 5% MeCN (0.5 min), 5% to 95% MeCN (5 min), 95% MeCN (0.5 min); flow rate: 2.0 ml/min)) and the AUC values (measured on sample specific wavelength) of the buffered samples were divided by the AUC values (same wavelength as buffered samples') of the DMSO control samples. Table 3: Solubility in water for several compounds according to general formula (I)

[3] = tested on: HKE3 human colon carcinoma cell line; assay: In vitro growth inhibition of colon carcinoma cells, HKE3 (CellTiter-Glo); type: cell-based; conditions: 72 hours incubation
[4] = tested on: H1 N1 influenza virus strain A/WSN/33; assay: microbe, parasite or virus in culture; type: cell-based; conditions: 36 h, read-out: Influenza replication IC50
human Ack1 kinase = human Ack1 kinase (Homo sapiens, UniProt Q07912); assay: In vitro Ack1 assay (TranScreener ADP2 FP, generation of ADP); type: biochemical; conditions: 12.5 uM compound; 3.5 µM ATP; read-out: Ack1 inh% @12.5 uM
Description: The activity of the compounds described in the present invention can be determined by the following kinase assay, which measures the generation of ADP by human Ack1 kinase by fluorescent polarization using a commercially available TranScreener ADP2 FP Assay Kit (BellBrook Labs).
Ack1 kinase assays were performed in low protein binding 384-well plates (Corning). Test compounds were diluted in 100% DMSO to 5 mM stock concentration and then further dilutions were made in H2O or 100% DMSO to desirable concentrations.
Each reaction consisted of 5 nM enzyme: Ack1 kinase, Poly Glu-Tyr (4:1) (Sigma), 3.5 µM ATP and kinase buffer: 20 mM HEPES pH7.5, 1 mM DTT, 2 mM MgCl2, 0.4 mM MnCl2, 0.01 V/V% Tween20 (all reagents from Sigma-Aldrich)
For each reaction, 4 or 6 µl containing Poly Glu-Tyr (4:1), ATP and kinase buffer were combined with 2 µl diluted compound in H2O or 0.02 µl compound in 100% DMSO. The kinase reaction was started by the addition of 2 µl diluted enzyme. The reaction was allowed to run for 1 hour at room temperature. The reaction was stopped by addition of 8 µl ADP detection mixture (1 x) (1 x Detection buffer + 4.78 µg/ml ADP2 Ab + 4 nM ADP Alexa633 Tracer). After an additional hour, fluorescent polarization (Ex: 630-35 nm, Em: 680-30 nm, Dich: 650 nm) was measured using an Analyst GT (Molecular Devices).

human Akt1 kinase = human Akt1 kinase (Homo sapiens, UniProt P31749); assay: In vitro Akt1 assay (IMAP fluorescence polarization, phosphorylation of TAMRA-peptide); type: biochemical; conditions: 40 µM ATP; for inhibition at 12.5 µM: 12.5 uM compound, read-out: Akt1 inh% @12.5 uM
Description: The inhibition of Akt1 by the compounds described in the present invention were determined measuring the phosphorylation of a fluorescently-labeled peptide (TAMRA-peptide) by human Akt1 kinase by fluorescent polarization using a commercially available IMAP Screening Express Assay Kit (Molecular Devices).
Akt1 kinase assays were performed in low protein binding 384-well plates (Corning). Test compounds were diluted in 100% DMSO to 5 mM stock concentration and then further dilutions were made in H2O or 100% DMSO to desirable concentrations.
Each reaction consisted of 5 nM enzyme: Akt1 kinase, 400 nM TAMRA-peptide (5-TAMRA-GRTGRRNSI-COOH; Genecust), 40 µM ATP and kinase buffer: 20 mM MES pH6, 1 mM DTT, 10 mM MgCl2, 2 mM MnCl2, 0.01 V/V% TritonX (all reagents from Sigma-Aldrich).
as §1, with “(1:400” for “(1:600”, “(75%” for “(80 %”, “25%” for “20%”

[5] = tested on: HepG2 hepatoblastomaderived cell line; assay: In vitro growth inhibition, HepG2 (CellTiter-Glo); type: cell-based; conditions: Homo sapiens, 72 hours incubation

human Akt1 kinase, sequence (P31749 whole entry): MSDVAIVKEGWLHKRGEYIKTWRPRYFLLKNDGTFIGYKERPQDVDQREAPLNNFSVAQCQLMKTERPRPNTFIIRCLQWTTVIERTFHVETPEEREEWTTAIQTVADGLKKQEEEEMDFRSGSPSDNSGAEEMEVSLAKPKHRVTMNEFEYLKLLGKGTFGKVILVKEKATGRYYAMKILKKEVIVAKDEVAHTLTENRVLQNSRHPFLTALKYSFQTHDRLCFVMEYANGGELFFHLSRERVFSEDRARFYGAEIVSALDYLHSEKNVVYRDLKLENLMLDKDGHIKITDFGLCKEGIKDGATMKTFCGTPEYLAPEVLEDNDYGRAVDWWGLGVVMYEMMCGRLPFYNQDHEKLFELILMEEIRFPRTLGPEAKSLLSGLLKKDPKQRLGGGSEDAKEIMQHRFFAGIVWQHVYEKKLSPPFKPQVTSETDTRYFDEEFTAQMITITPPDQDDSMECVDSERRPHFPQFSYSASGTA
human Ack1 kinase, sequence (Q07912 whole entry): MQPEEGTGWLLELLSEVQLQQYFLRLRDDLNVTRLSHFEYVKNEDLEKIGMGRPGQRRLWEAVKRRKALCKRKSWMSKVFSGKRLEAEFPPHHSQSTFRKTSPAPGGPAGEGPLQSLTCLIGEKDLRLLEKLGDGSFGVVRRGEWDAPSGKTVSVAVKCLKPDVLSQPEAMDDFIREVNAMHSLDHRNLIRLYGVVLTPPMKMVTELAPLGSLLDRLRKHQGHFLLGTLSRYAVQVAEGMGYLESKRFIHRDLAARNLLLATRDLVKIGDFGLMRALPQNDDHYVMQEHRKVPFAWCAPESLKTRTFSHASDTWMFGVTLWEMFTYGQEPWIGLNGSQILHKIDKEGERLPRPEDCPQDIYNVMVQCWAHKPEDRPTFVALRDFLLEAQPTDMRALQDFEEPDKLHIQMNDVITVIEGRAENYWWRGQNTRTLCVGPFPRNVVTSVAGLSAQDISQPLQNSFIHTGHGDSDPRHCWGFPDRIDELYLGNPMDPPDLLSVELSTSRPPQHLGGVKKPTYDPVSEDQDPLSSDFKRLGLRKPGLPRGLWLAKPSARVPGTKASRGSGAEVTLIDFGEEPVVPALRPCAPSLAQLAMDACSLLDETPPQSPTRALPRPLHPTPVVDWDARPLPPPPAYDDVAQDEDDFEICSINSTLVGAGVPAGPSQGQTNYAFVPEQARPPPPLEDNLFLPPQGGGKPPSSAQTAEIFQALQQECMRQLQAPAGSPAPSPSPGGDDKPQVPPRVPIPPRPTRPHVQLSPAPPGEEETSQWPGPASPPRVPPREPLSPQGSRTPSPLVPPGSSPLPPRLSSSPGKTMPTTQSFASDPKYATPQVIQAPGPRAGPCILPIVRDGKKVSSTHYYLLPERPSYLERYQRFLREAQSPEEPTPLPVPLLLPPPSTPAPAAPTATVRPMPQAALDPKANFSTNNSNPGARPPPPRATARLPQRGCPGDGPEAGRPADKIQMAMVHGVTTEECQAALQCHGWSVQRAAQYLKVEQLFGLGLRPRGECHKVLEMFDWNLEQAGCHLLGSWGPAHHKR
T1 sequence (P49759 161-477 limits assumed): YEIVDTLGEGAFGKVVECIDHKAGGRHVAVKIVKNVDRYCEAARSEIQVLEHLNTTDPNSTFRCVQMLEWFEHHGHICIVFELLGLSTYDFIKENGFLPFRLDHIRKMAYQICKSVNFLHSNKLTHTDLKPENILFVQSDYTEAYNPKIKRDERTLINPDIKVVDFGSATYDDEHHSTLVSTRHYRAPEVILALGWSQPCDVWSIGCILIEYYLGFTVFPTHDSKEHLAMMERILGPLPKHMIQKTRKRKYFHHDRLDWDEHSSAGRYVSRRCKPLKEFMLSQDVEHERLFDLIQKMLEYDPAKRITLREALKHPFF

SMILES | EC50 [1] [nM] | EC50 [2] [nM] | IC50 (human Clk1 kinase) [nM] | solubility at 24 h (physchem; pH 2, aqueous buffer) [µM] | solubility at 24 h (physchem; pH 7.4, aqueous buffer) [µM] | EC50 [3] [nM] | IC50 [4] [nM] | inhibition at 12.5 µM (human Ack1 kinase) [%] | inhibition at 12.5 µM (human Akt1 kinase) [%] | IC50 (human Akt1 kinase) [nM] | EC50 [5] [nM]
C[C@@H](NC(=O)c1ccc2c(c1)/C(=C(/Nc1cccc(CN3CCCCC3)c1)c1ccccc1)C(=O)N2)c1ccccc1 [Compound 13, (3Z)-2-oxo-N-[(1R)-1-phenylethyl]-3-(phenyl{[3-(piperidin-1-ylmethyl)phenyl]amino}methylene)indoline-5-carboxamide] | 170 | 9340 | 30 | 110 to 120 (≈ 61.2 to 66.8 µg/mL) | < 10 | 140 | 160 | 13.7 | 60.6 | 5940 | 5660
CC[C@@H](NC(=O)c1ccc2c(c1)/C(=C(/Nc1ccc(CN3CCCCC3)cc1)c1ccccc1)C(=O)N2)c1ccccc1 [Compound 18, (3Z)-2-oxo-3-(phenyl{[4-(piperidin-1-ylmethyl)phenyl]amino}methylene)-N-[(1R)-1-phenylpropyl]indoline-5-carboxamide] | 10 | > 30000 | 30 | 110 to 120 (≈ 62.8 to 68.5 µg/mL) | < 10 | 4 | < 10 | 85.9 | 92.1 | 570 | 310
O=C1Nc2ccc(C(=O)NCc3ccccc3)cc2/C1=C(/Nc1ccc(CN2CCCCC2)cc1)c1ccccc1 [Compound 20, (3Z)-N-benzyl-2-oxo-3-(phenyl{[4-(piperidin-1-ylmethyl)phenyl]amino}methylene)indoline-5-carboxamide] | 20 | > 30000 | 10 | 110 to 120 (≈ 59.7 to 65.1 µg/mL) | < 10 | 10 | < 10 | 72.7 | 91.6 | 910 | 790
COc1ccc([C@@H](C)NC(=O)c2ccc3c(c2)/C(=C(/Nc2ccc(CN4CCCCC4)cc2)c2ccccc2)C(=O)N3)cc1 [Compound 21, (3Z)-N-[(1R)-1-(4-methoxyphenyl)ethyl]-2-oxo-3-(phenyl{[4-(piperidin-1-ylmethyl)phenyl]amino}methylene)indoline-5-carboxamide] | 410 | > 30000 | 20 | 100 to 110 (≈ 58.7 to 64.5 µg/mL) | < 10 | 320 | 1480 | 87 | 78.2 | 1700 | 5300
COc1cccc([C@@H](C)NC(=O)c2ccc3c(c2)/C(=C(/Nc2ccc(CN4CCCCC4)cc2)c2ccccc2)C(=O)N3)c1 [Compound 22, (3Z)-N-[(1R)-1-(3-methoxyphenyl)ethyl]-2-oxo-3-(phenyl{[4-(piperidin-1-ylmethyl)phenyl]amino}methylene)indoline-5-carboxamide] | 40 | > 30000 | 20 | 110 to 120 (≈ 64.5 to 70.4 µg/mL) | < 10 | 20 | < 10 | 83.8 | 88 | 110 | 1060
C[C@@H](NC(=O)c1ccc2c(c1)/C(=C(/Nc1ccc(CN3CCCCC3)cc1)c1ccccc1)C(=O)N2)c1ccc(F)cc1 [Compound 23, (3Z)-N-[(1R)-1-(4-fluorophenyl)ethyl]-2-oxo-3-(phenyl{[4-(piperidin-1-ylmethyl)phenyl]amino}methylene)indoline-5-carboxamide] | 40 | 15300 | 20 | 110 to 120 (≈ 63.2 to 69 µg/mL) | < 10 | 40 | < 10 | 91.1 | 92.1 | 180 | 920
COc1cccc([C@@H](C)NC(=O)c2ccc3c(c2)/C(=C(/Nc2cccc(CN4CCCCC4)c2)c2ccccc2)C(=O)N3)c1 [Compound 24, (3Z)-N-[(1R)-1-(3-methoxyphenyl)ethyl]-2-oxo-3-(phenyl{[3-(piperidin-1-ylmethyl)phenyl]amino}methylene)indoline-5-carboxamide] | 380 | 11800 | 80 | 110 to 120 (≈ 64.5 to 70.4 µg/mL) | < 10 | 290 | 420 | 13.7 | 76.8 | 880 | 6090
Cc1ccc([C@@H](C)NC(=O)c2ccc3c(c2)/C(=C(/Nc2cccc(CN4CCCCC4)c2)c2ccccc2)C(=O)N3)cc1 [Compound 27, (3Z)-N-[(1R)-1-(4-methylphenyl)ethyl]-2-oxo-3-(phenyl{[3-(piperidin-1-ylmethyl)phenyl]amino}methylene)indoline-5-carboxamide] | 1410 | 25400 | 200 | 110 to 120 (≈ 62.8 to 68.5 µg/mL) | < 10 | 1320 | 2460 | 9.9 | 81.3 | 2960 | 5240
